Results reported in patent US20250197388A1, “COMPOUNDS, PHARMACEUTICAL COMPOSITIONS AND METHODS FOR TREATING INFLAMMATORY BOWEL DISEASE” (FLAGSHIP PIONEERING INNOVATIONS VI, LLC, priority 2022, published 2025).
Entries after “also recorded” stand apart in the source; their conditions may differ.

What was measured:
[1] = test system: LPS-induced IRF reporter activity; experiment: IRF assay, THP-1 dual reporter cell line (Lucia luciferase) stimulated with LPS; format: cell-based; conditions: for inhibition of LPS-induced IRF reporter activity: THP-1 dual reporter cells, LPS 25 ng/mL, compounds at 1 μM or 10 μM
Protocol: Compounds described herein are added to mammalian cells for bioactivity assessment. The THP-1 dual reporter cell line (InVivoGen) secretes a reporter protein (Lucia luciferase or LUC) in response to activation by the pro-inflammatory bacterial component lipopolysaccharide (LPS). THP-1 dual reporter cells were grown in RPMI 1640 culture medium with 2 mM L-glutamine, 25 mM HEPES, 10% heat-inactivated fetal bovine serum, 100 µg/ml Normocin antibiotic (InvivoGen), Pen-Strep antibiotic (100 U/ml-100 […], InvivoGen). On the day of the assay, cells were seeded in a 96 flat-bottom well plate at 50,000 cells/well and incubated for 2 hours. Cells were then incubated with 1 μM or 10 μM of the compounds described herein or with 1 μM of KK-16 (Selleck), a potent inhibitor of IκB kinases (IKKs) or with DMSO (vehicle control) for 2 hours, followed by the addition of LPS at 25 ng/mL and incubation for 24 hours. After incubation was concluded, the cultures supernatants were collected and IRF related activity was assessed by measurement of the Lucia luciferase, using Quanti-Luc assay (InvivoGen) and these values were adjusted by the Cell Viability levels that was assessed using the Cell-Titer-Glo2 Reagent (Promega).

[2] = target: T1, Dectin-1b (Homo sapiens, UniProt Q9BXN2); experiment: Dectin-1 assay, HEK-Blue Dectin-1b SEAP reporter cells stimulated with beta-glucan peptide (BGP); format: cell-based; conditions: for Activity: HEK-Blue Dectin-1b cells, compounds at 1, 10 or 30 μM for 6 hours, then BGP 30 μg/mL 16-18 hours, SEAP adjusted by cell viability
T1 construct: host or cells: HEK-Blue Dectin-1b reporter cells (HEK293-derived)
T1 sequence (Q9BXN2 1-201 isoform Q9BXN2-2): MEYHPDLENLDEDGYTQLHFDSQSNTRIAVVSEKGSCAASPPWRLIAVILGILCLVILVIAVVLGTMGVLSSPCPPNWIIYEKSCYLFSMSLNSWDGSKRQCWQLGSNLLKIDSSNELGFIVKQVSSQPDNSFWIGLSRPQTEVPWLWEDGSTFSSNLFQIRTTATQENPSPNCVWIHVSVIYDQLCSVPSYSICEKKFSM
Protocol: Compounds described herein are added to mammalian cells for bioactivity assessment. The HEK-Blue Dectin-1b cells line (InVivoGen) releases a reporter protein (secreted embryonic alkaline phosphatase, SEAP) to the culture supernatant in response to Dectin-1 activation. HEK-Blue reporter cells were grown in DMEM culture media with 10% decomplemented fetal calf serum (InvivoGen, 1% Pen/Strep antibiotic (InvivoGen), 0.2% Normocin antibiotic (InvivoGen). On the day prior to the assay, cells were seeded in a 96 flat-bottom well plate at 50,000 cells/well and further incubated for 20 hours. On the day of the assay cells were incubated with 1 μM, 10 μM or 30 μM of the compounds described herein or with 1 μM of the SYKi IV Dectin-1b Inhibitor (Millipore) or with DMSO (vehicle control) for 6 hours, followed by the addition of beta-glucan peptide (BGP, a Dectin-1 ligand at 30 μg/mL) and incubation for 16-18 hours. After incubation was concluded, the cultures supernatants were collected and Dectin-1 related activity was assessed by measurement of the SEAP-reporter protein presence, using Quanti-Blue assay (Invivogen) and these values were adjusted by the Cell Viability levels that was assessed using the Cell-Titer-Glo2 Reagent (Promega).
Results represent cell number adjusted SEAP levels in a triplicate setting for each condition and cell numbers and viability corrections reflected less than 5% corrections. See, e.g., FIG. 1 for compound A-3.

[3] = test system: LPS-stimulated monocyte-derived dendritic cells; experiment: MoDC assay, LPS-stimulated pro-inflammatory cytokines; format: cell-based, human; conditions: for inhibition of pro-inflammatory cytokines (overall): healthy human donor 14 (FIGS. 9A-9H)
[4] = test system: R848-stimulated monocyte-derived dendritic cells; experiment: MoDC assay, R848-stimulated pro-inflammatory cytokines; format: cell-based, human; conditions: for Gro-α / IL-6 / IL-12p70 / IL-23 / IP-10 / MCP-1 / Mip-1α / TNFα: healthy human donor 14; for inhibition of pro-inflammatory cytokines (overall): healthy human donor 14 (FIGS. 10A-10H)
Description: (§1) Monocyte derived DC (MoDC) were differentiated from healthy human donor derived CD14+ monocytes. Commercially available freshly prepared Leukopaks were obtained from healthy blood donor and kept refrigerated on ice before spin centrifuged and the pelleted cells are rinsed and resuspended with MACS buffer (Miltenyi Biotec). Next, CD14+ monocytes were purified using MultiMACS™ Cell24 Separator-Plus instrumentation and reagents according to the manufacturer (Miltenyi Biotec) instructions. The resulting purified CD14^+ cell fraction was washed, enumerated, and subsequently cryopreserved for later use. At the experiment first day cryopreserved CD14′ cells were thawed, rinsed with culture media, and then resuspended in culture media principally composed of RPMI (Invitrogen) supplemented with 10% v/v heat inactivated FBS. For generation of MoDC, these CD14^+ cells were enumerated and seeded into 75 cm^2 tissue culture flasks in 30 mL of culture media supplemented with GM-CSF (40-100 ng/mL) and IL-4 (25 ng/mL). Every other day, half of the culture media was replaced with fresh media (containing the same cytokine supplementation) and after 6-7 days of culture, fully differentiated and matured MoDC were obtained as confirmed by conventional Immuno-phenotype markers (levels of expression or absence of surface CD80, CD83, CD86, CD209, HLA-DR, CD14 & CD64) that were verified by flow-cytometry. Fully differentiated (mature) MoDCs, were seeded into 96 flat-well plates and incubated with a various concentration of the compound described herein, or with control solution (DMSO), or with the pharmacologic inhibitors Cyclosporin-A (CsA) and BAY 61-3606 (which is a known inhibitor of Syk kinase) for 6 hours. Next, the MoDC culture well were added with Dectin-1(CLEC7a1)-ligand (Zymosan at 5 μg/mL), or the Toll-like receptor agonist R848, and further incubated for 18-20 hours. After incubation concluded, culture supernatants were collected, and the levels of inflammatory cytokines and chemokines was measured in a triplicate setting for each condition by Luminex® multiplex assay (FIG. 2) or by ELISA (FIG. 3).

[5] = Compound interconversion monitored by 1H-NMR in neutral aqueous buffer; format: physicochemical; conditions: 37° C. in the neutral aqueous buffer
Protocol: This examples provide the kinetics of compounds A-2 and A-3. More specifically, A-6 is a mixture of compounds A-2 and A-3 and interconvert in solutions.
In this example, A-6 was combined with […] of Na3PO4, DCl, and D2O at a pH of 7-7.5. This solution was then monitored using 1H-NMR at 37° C.
Interconversion between compounds A-2 and A-3 was seen and monitored for 5 days. See, Table 1.

[6] = test system: Zymosan-induced production of IL-12p40 in monocyte-derived dendritic cells; experiment: Monocyte derived DC (MoDC) assay, Zymosan-induced IL-12p40 (Luminex/ELISA); format: cell-based, human
Description: as §1

With `CN1C([C@@H]2CSC(c3ccccc3O)=N2)SC[C@@H]1C(=O)O` (stereo partly drawn) [Compound A6, (4S)-2-((S)-2-(2-hydroxyphenyl)-4,5-dihydrothiazol-4-yl)-3-methylthiazolidine-4-carboxylic acid] the “inhibition of LPS-induced IRF reporter activity” value [1] was “shows inhibition of LPS-induced IRF reporter activity”, the “statistical significance of inhibition of LPS-induced IRF reporter activity” value ([1]; tested at 1 μM (FIG. 8B)) was “meets statistical significance” and the “inhibition of BGP-induced Dectin-1b reporter gene activity / signaling” value ([2]; HEK-Dectin-1b cells, range from 1 μM to 30 μM) was “dose-dependent inhibition”. The “concentration of maximal inhibition of BGP-induced Dectin-1b activity” value ([2]; range 1 μM to 30 μM, the maximum concentration tested) was 30 µM, the Gro-α ([3]; healthy human donor 14) was “statistically significant decrease” and the IL-6 ([3]; healthy human donor 14) was “statistically significant decrease”. The IL-12p70 ([3]; healthy human donor 14) was “statistically significant decrease”, the IL-23 ([3]; healthy human donor 14) was “statistically significant decrease” and the IP-10 ([3]; healthy human donor 14) was “statistically significant decrease”. The MCP-1 ([3]; healthy human donor 14) was “statistically significant decrease”, the Mip-1α ([3]; healthy human donor 14) was “statistically significant decrease” and the TNFα ([3]; healthy human donor 14) was “statistically significant decrease”. The “inhibition of pro-inflammatory cytokines (overall)” value (“inhibition … (overall)” for short) [3] was “inhibit several pro-inflammatory cytokines; also recorded: inhibition of pro-inflammatory cytokines”, the Gro-α [4] was “statistically significant decrease” and the IL-6 [4] was “statistically significant decrease”. The IL-12p70 [4] was “statistically significant decrease”, the IL-23 [4] was “statistically significant decrease” and the IP-10 [4] was “statistically significant decrease”. For the same molecule, the MCP-1 [4] was “statistically significant decrease”, the Mip-1α [4] was “statistically significant decrease” and the TNFα [4] was “statistically significant decrease”. The “inhibition … (overall)” value [4] was “inhibit several pro-inflammatory cytokines; also recorded: inhibition of pro-inflammatory cytokines”.
With `CN1C(C2CSC(c3ccccc3O)=N2)SC[C@@H]1C(=O)O` (stereo partly drawn) [Compound A-1, (4S)-2-(2-(2-hydroxyphenyl)-4,5-dihydrothiazol-4-yl)-3-methylthiazolidine-4-carboxylic acid] the Activity [2] was <30 µM.
With `CN1[C@@H](C(=O)O)CS[C@H]1[C@@H]1CSC(c2ccccc2O)=N1` (single isomer, unassigned) [Compound A-3] the “equilibrium ratio of interconversion” value [5] was “about 1.5/1”, the “time to nearly reach interconversion equilibrium” value [5] was “about 7 hours” and the Activity [2] was <30 µM. For the same molecule, the “inhibition of Zymosan-induced production of IL-12p40” value ([6]; MoDC from healthy human donors 1, 2 and 3, 15.5 nM to 1 μM (FIGS. 6A-6C)) was “inhibition”, the “concentration of maximal inhibition of Zymosan-induced IL-12p40” value ([6]; donors 1, 2 and 3, the highest concentration tested) was 1 µM and the “inhibition of zymosan-induced IL-12p40” value ([6]; primary human MoDC from healthy donors 5 and 6, 0.5 μM final concentration (FIGS. 11A, 11B)) was “does not achieve statistically significant inhibition”.
For `CN1C(C2CSC(c3ccccc3O)=N2)SC[C@]1(C)C(=O)O` (stereo partly drawn) [Compound B-1, (4S)-2-(2-(2-hydroxyphenyl)-4,5-dihydrothiazol-4-yl)-3,4-dimethylthiazolidine-4-carboxylic acid], the Activity [2] was <30 µM and the Activity ([6]; MoDC assay) was <30 µM.
In the case of `C[C@]1(C(=O)O)CSC(C2CSC(c3ccccc3O)=N2)N1` (stereo partly drawn) [Compound E-1, (4S)-2-(2-(2-hydroxyphenyl)-4,5-dihydrothiazol-4-yl)-4-methyl-thiazolidine-4-carboxylic acid], the Activity [2] is reported as <30 µM.
With `C#CCCC1(CCOC(=O)[C@H]2CSC(C3CSC(c4ccccc4O)=N3)N2C)N=N1` (stereo partly drawn) [Compound D-1] the Activity [2] was <30 µM.
In the case of `C#CCCC1(CCNC(=O)[C@H]2CS[C@@H]([C@@H]3CSC(c4ccccc4O)=N3)N2C)N=N1` [Compound C-3, (2S,4S)—N-(2-(3-(but-3-yn-1-yl)-3H-diazirin-3-yl)ethyl)-2-((S)-2-(2-hydroxyphenyl)-4,5-dihydrothiazol-4-yl)-3-methylthiazolidine-4-carboxamide], the Activity [2] is reported as <30 µM.
In the case of `CN1C([C@H]2CSC(c3ccccc3O)=N2)SC[C@H]1C(=O)O` (stereo partly drawn) [Compound I-100, (4R)-2-((R)-2-(2-hydroxyphenyl)-4,5-dihydrothiazol-4-yl)-3-methylthiazolidine-4-carboxylic acid], the “inhibition of LPS-induced IRF reporter activity” value [1] is reported as “shows inhibition of LPS-induced IRF reporter activity”, the “statistical significance of inhibition of LPS-induced IRF reporter activity” value ([1]; tested at 1 and 10 μM (FIG. 8A)) is reported as “does not meet statistical significance” and the Gro-α ([3]; healthy human donor 14) is reported as “statistically significant decrease”. The IL-6 ([3]; healthy human donor 14) was “statistically significant decrease”, the IL-12p70 ([3]; healthy human donor 14) was “statistically significant decrease” and the IL-23 ([3]; healthy human donor 14) was “statistically significant decrease”. The MCP-1 ([3]; healthy human donor 14) was “statistically significant decrease”, the Mip-1α ([3]; healthy human donor 14) was “statistically significant decrease” and the TNFα ([3]; healthy human donor 14) was “statistically significant decrease”. The “inhibition … (overall)” value [3] was “inhibit several pro-inflammatory cytokines; also recorded: inhibition of pro-inflammatory cytokines”, the Gro-α [4] was “statistically significant decrease” and the IL-6 [4] was “statistically significant decrease”. For the same molecule, the IL-12p70 [4] was “statistically significant decrease”, the IL-23 [4] was “statistically significant decrease” and the IP-10 [4] was “statistically significant decrease”. For the same molecule, the MCP-1 [4] was “statistically significant decrease”, the Mip-1α [4] was “statistically significant decrease” and the TNFα [4] was “statistically significant decrease”. The “inhibition … (overall)” value [4] was “inhibit several pro-inflammatory cytokines; also recorded: inhibition of pro-inflammatory cytokines”.
With `C#CCCC1(CCNC(=O)[C@H]2CSC(C3CSC(c4ccccc4O)=N3)N2C)N=N1` (some centres unmarked) [Compound C-1] the Activity [2] was <30 µM.
For `C#CCCC1(CCNC(=O)[C@H]2CS[C@H]([C@@H]3CSC(c4ccccc4O)=N3)N2C)N=N1` [Compound C-2, (4S)—N-[2-(3-but-3-ynyldiazirin-3-yl)ethyl]-2-[(4S)-2-(2-hydroxyphenyl)-4,5-dihydrothiazol-4-yl]-3-methyl-thiazolidine-4-carboxamide], the Activity [2] was <30 µM.
For `CN1[C@@H](C(=O)O)CS[C@H]1[C@H]1CSC(c2ccccc2)=N1` (single isomer, unassigned) [Compound F-2], the Activity [2] was <30 µM.
